Reference: PubChem BioAssay AID276 (DTP/NCI, 2004)
Where “and” joins values, the source holds several entries; their conditions need not be identical. Equal values may be shown once. Toxic doses and inconclusive results are not listed.

System: B6C3F1 mice, Lewis lung carcinoma iv, survival T/C
Assay: NCI In Vivo Anticancer Drug Screen. Data for tumor model Lewis Lung Carcinoma (intravenous) in B6C3F1 mice
Conditions: endpoint: median survival time, higher = longer survival
Procedure, shortened: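 Mice carrying transplanted tumors received test compound; survival in the treated group was divided by that of the vehicle-treated control group to give the T/C value.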

[1] = dose: 12.5 mg/kg/injection, schedule: Q01DX009 (ip), vehicle: saline with Tween-80
[2] = dose: 25.0 mg/kg/injection, schedule: Q01DX009 (ip), vehicle: saline with Tween-80
[3] = dose: 50.0 mg/kg/injection, schedule: Q01DX009 (ip), vehicle: saline with Tween-80
[4] = dose: 100.0 mg/kg/injection, schedule: Q01DX009 (ip), vehicle: saline with Tween-80
[5] = dose: 50.0 mg/kg/injection, schedule: Q01DX009 (ip), vehicle: saline
[6] = dose: 100.0 mg/kg/injection, schedule: Q01DX009 (ip), vehicle: saline
[7] = dose: 6.25 mg/kg/injection, schedule: Q01DX009 (ip), vehicle: saline with Tween-80
[8] = dose: 12.5 mg/kg/injection, schedule: Q01DX009 (ip), vehicle: saline

CCN(CC)c1ccc2[nH]c3c(C(N)=O)cc(=O)c(=O)c=3oc2c1
T/C [1]: 90 % of control
T/C [2]: 107 % of control
T/C [3]: 98 % of control
T/C [4]: 93 % of control

O=P(O)(NCCCl)NCCCl
T/C (dose: 25.0 mg/kg/injection, schedule: Q01DX001 (ip), vehicle: saline with Tween-80): 108 % of control
T/C (dose: 100.0 mg/kg/injection, schedule: Q01DX001 (ip), vehicle: saline with Tween-80): 184 % of control and 226 % of control and 312 % of control
T/C (dose: 200.0 mg/kg/injection, schedule: Q01DX001 (ip), vehicle: saline with Tween-80): 281 % of control

O=c1n[n+]([O-])ccn1C1OC(CO)C(O)C1O (stereo not given)
T/C [5]: 117 % of control
T/C [6]: 107 % of control
T/C (dose: 400.0 mg/kg/injection, schedule: Q01DX009 (ip), vehicle: saline): 89 % of control

CCc1nc(N)nc(N)c1-c1ccc(Cl)c([N+](=O)[O-])c1
T/C (dose: 1.56 mg/kg/injection, schedule: Q01DX009 (ip), vehicle: saline with Tween-80): 104 % of control
T/C (dose: 3.12 mg/kg/injection, schedule: Q01DX009 (ip), vehicle: saline with Tween-80): 105 % of control
T/C [7]: 104 % of control
T/C [1]: 105 % of control

O=NN(CCF)C(=O)N[C@H]1CCCC[C@H]1O
T/C (dose: 2.5 mg/kg/injection, schedule: Q01DX009 (ip), vehicle: saline): 105 % of control
T/C (dose: 5.0 mg/kg/injection, schedule: Q01DX009 (ip), vehicle: saline): 121 % of control
T/C (dose: 10.0 mg/kg/injection, schedule: Q01DX009 (ip), vehicle: saline): 173 % of control
T/C (dose: 20.0 mg/kg/injection, schedule: Q01DX009 (ip), vehicle: saline): 312 % of control

CN(CCN(C)C(=O)CCOS(C)(=O)=O)C(=O)CCOS(C)(=O)=O
T/C (dose: 12.5 mg/kg/injection, schedule: Q01DX009 (ip), vehicle: suspension in saline): 101 % of control
T/C (dose: 25.0 mg/kg/injection, schedule: Q01DX009 (ip), vehicle: suspension in saline): 97 % of control
T/C (dose: 50.0 mg/kg/injection, schedule: Q01DX009 (ip), vehicle: suspension in saline): 102 % of control
T/C (dose: 100.0 mg/kg/injection, schedule: Q01DX009 (ip), vehicle: suspension in saline): 107 % of control

CCCC(=O)O
T/C [8]: 123 % of control
T/C (dose: 25.0 mg/kg/injection, schedule: Q01DX009 (ip), vehicle: saline): 109 % of control
T/C [5]: 114 % of control
T/C [6]: 106 % of control
T/C (dose: 200.0 mg/kg/injection, schedule: Q01DX009 (ip), vehicle: saline): 98 % of control

O=C1N[C@@H]2C(=C[C@H](O)[C@@H](O)[C@H]2O)c2cc3c(c(O)c21)OCO3
T/C (dose: 0.62 mg/kg/injection, schedule: Q01DX009 (ip), vehicle: saline with Tween-80): 93 % of control
T/C (dose: 0.63 mg/kg/injection, schedule: Q01DX009 (ip), vehicle: saline with Tween-80): 112 % of control
T/C (dose: 1.25 mg/kg/injection, schedule: Q01DX009 (ip), vehicle: saline with Tween-80): 107 % of control and 109 % of control
T/C (dose: 2.5 mg/kg/injection, schedule: Q01DX009 (ip), vehicle: saline with Tween-80): 107 % of control and 117 % of control

O=[Te]=O
T/C (dose: 3.0 mg/kg/injection, schedule: Q01DX009 (ip), vehicle: suspension in saline): 121 % of control
T/C (dose: 3.12 mg/kg/injection, schedule: Q01DX009 (ip), vehicle: saline): 102 % of control
T/C (dose: 6.0 mg/kg/injection, schedule: Q01DX009 (ip), vehicle: suspension in saline): 101 % of control
T/C (dose: 6.25 mg/kg/injection, schedule: Q01DX009 (ip), vehicle: saline): 100 % of control
T/C (dose: 12.0 mg/kg/injection, schedule: Q01DX009 (ip), vehicle: suspension in saline): 101 % of control
T/C [8]: 106 % of control
T/C (dose: 24.0 mg/kg/injection, schedule: Q01DX009 (ip), vehicle: suspension in saline): 106 % of control
T/C (dose: 48.0 mg/kg/injection, schedule: Q01DX009 (ip), vehicle: suspension in saline): 115 % of control

C[C@]12CCC(=O)C=C1CC[C@@H]1[C@@H]2C(=O)C[C@@]2(C)[C@H]1CC[C@]2(O)C(=O)CO
T/C (dose: 25.0 mg/kg/injection, schedule: Q01DX009 (ip), vehicle: Klucel (hydroxypropylcellulose) (HPC)): 95 % of control
T/C (dose: 50.0 mg/kg/injection, schedule: Q01DX009 (ip), vehicle: Klucel (hydroxypropylcellulose) (HPC)): 99 % of control
T/C (dose: 100.0 mg/kg/injection, schedule: Q01DX009 (ip), vehicle: Klucel (hydroxypropylcellulose) (HPC)): 98 % of control
T/C (dose: 200.0 mg/kg/injection, schedule: Q01DX009 (ip), vehicle: Klucel (hydroxypropylcellulose) (HPC)): 103 % of control
T/C (dose: 400.0 mg/kg/injection, schedule: Q01DX009 (ip), vehicle: Klucel (hydroxypropylcellulose) (HPC)): 93 % of control

O=CC=O
T/C [7]: 102 % of control
T/C [1]: 116 % of control
T/C [2]: 107 % of control
T/C [3]: 107 % of control
T/C [4]: 95 % of control
T/C (dose: 200.0 mg/kg/injection, schedule: Q01DX009 (ip), vehicle: saline with Tween-80): 101 % of control
